# Test results: ChEMBL document CHEMBL4219192, “Structural analysis and antioxidant activity of the glycoside from Imperial Chrysanthemum” (Bioorg Med Chem Lett, 2018)
# Activity calls are given as the source filed them. The rule behind the calls is not given here.
# How the values were obtained:
# Type in all cases: functional
# [1] = Antioxidant activity assessed as inhibition of superoxide radical generation after 4 mins by pyrogallol autoxidation method
# [2] = Antioxidant activity assessed as hydroxyl radical scavenging activity preincubated for 20 mins followed by salicylic acid addition measured after 60 mins by fenton reaction method relative to control
# [3] = Antioxidant activity assessed as ABTS radical scavenging activity at 2.5 mg/ml after 6 mins relative to control
# [4] = Antioxidant activity assessed as hydroxyl radical scavenging activity at 2.5 mg/ml preincubated for 20 mins followed by salicylic acid addition measured after 60 mins by fenton reaction method relative to control
# [5] = Antioxidant activity assessed as inhibition of superoxide radical generation at 2.5 mg/ml after 4 mins by pyrogallol autoxidation method relative to control
# [6] = Antioxidant activity assessed as DPPH radical scavenging activity at 2.5 mg/ml after 30 mins by absorbance method relative to control
# [7] = Antioxidant activity assessed as DPPH radical scavenging activity up to 0.6 mg/ml after 30 mins by absorbance method relative to control
# [8] = Antioxidant activity assessed as inhibition of superoxide radical generation up to 0.6 mg/ml after 4 mins by pyrogallol autoxidation method relative to control
SMILES,inhibition [1],Activity [2],Activity [3] [%],Activity [4] [%],inhibition [5] [%],Activity [6] [%],Activity [7],inhibition [8]
OCOC1COC(S)(O[C@@H]2O[C@H](CO)[C@@H](O)[C@H](O)[C@H]2O)C1OCO (stereo not given in full),Dose-dependent effect,Dose-dependent effect,83.3,76.2,73.9,83.9,–,–
O=C1O[C@H]([C@@H](O)CO)C(O)=C1O,–,–,96.8,94.9,–,–,Active,Active
